Experimental data: patent US20050222085A1, “Quaternised ammonium cyclodextrin compounds” (priority 2002, published 2005)

Legend:
Assay in all cases: Preservative effectiveness test
Assay type in all cases: cell-based
[1] = system: Aspergillus niger ATCC 16404; conditions: Time 28 d; same solution
Procedure: (§1) 0.2 g of QA-beta-CD (QA-beta-CD=3-(trimethylammonio)-2-hydroxypropyl-beta-cyclodextrin chloride, empiric formula: (C6H10-nO5)7(C6H15ONCl)n n=2-5. are added to 170 ml water (nanopure). Then 10.10 g of Sorbitol and 0.2 g of Disodium edetate are added and the pH is adjusted to a value of 7.0-7.4 and water added to make up 200 ml of resulting solution. The solution is filtered through a Corning bottle top filter unit 0.22 μm CA under sterile conditions. The solution has a pH of 7.35 and an osmolality of 307 mOsm/kg (270-330).
(§2) Samples of the solution are inoculated with Escherichia coli ATCC 8739; Pseudomonas aeruginosa ATCC 9027, Staphyloccocus aureus ATCC 6538; Candida albicans ATCC 10231 and Aspergillus niger ATCC 16404, respectively and assayed for presence/growth at the times given in Table 2.

[2] = system: Staphyloccocus aureus ATCC 6538; conditions: same solution
Procedure: as §1, §2

[3] = system: Escherichia coli ATCC 8739; conditions: same solution
Procedure: as §1, §2

[4] = system: Candida albicans ATCC 10231; conditions: same solution
Procedure: as §1, §2

[5] = system: Pseudomonas aeruginosa ATCC 9027; conditions: same solution
Procedure: as §1, §2

3-(trimethylammonio)-2-hydroxypropyl-beta-cyclodextrin chloride [QA-beta-CD]
presence/growth of Aspergillus niger ATCC 16404 [1]: 2. 10^2
presence/growth of Staphyloccocus aureus ATCC 6538 ([2]; Time 24 h): <10^2
presence/growth of Staphyloccocus aureus ATCC 6538 ([2]; Time 7 d): <10^2
presence/growth of Staphyloccocus aureus ATCC 6538 ([2]; Time 28 d): <10^2
presence/growth of Escherichia coli ATCC 8739 ([3]; Time 6 h): <10^2
presence/growth of Escherichia coli ATCC 8739 ([3]; Time 24 h): <10^2
presence/growth of Escherichia coli ATCC 8739 ([3]; Time 7 d): <10^2
presence/growth of Escherichia coli ATCC 8739 ([3]; Time 28 d): <10^2
presence/growth of Candida albicans ATCC 10231 ([4]; Time 7 d): <10^2
presence/growth of Candida albicans ATCC 10231 ([4]; Time 14 d): <10^2
presence/growth of Candida albicans ATCC 10231 ([4]; Time 28 d): <10^2
presence/growth of Pseudomonas aeruginosa ATCC 9027 ([5]; Time 6 h): <10^2
presence/growth of Pseudomonas aeruginosa ATCC 9027 ([5]; Time 24 h): <10^2
presence/growth of Pseudomonas aeruginosa ATCC 9027 ([5]; Time 7 d): <10^2
presence/growth of Pseudomonas aeruginosa ATCC 9027 ([5]; Time 28 d): <10^2
